Conditions: 101.33 kPa, Liquid; for electrical conductivity: the complex impedance method; for mass density: Vibrating tube method

CC[N+](C)(CC)CCOC.F[B-](F)(F)F
Conditions | electrical conductivity [S/m] | mass density [kg/m3] | viscosity [mPa·s]
263.15 K | 0.0055 | – | –
273.15 K | 0.0156 | – | –
283.15 K | 0.0381 | 1188.2 | 1350
288.15 K | – | 1184.8 | 890
293.15 K | 0.0821 | 1181.3 | 604
298.15 K | – | 1177.8 | 422
303.15 K | 0.153 | 1174.4 | 303
308.15 K | – | 1171 | 222
313.15 K | 0.262 | 1167.7 | 167
318.15 K | – | 1164.4 | 128
323.15 K | 0.414 | 1161.1 | 99.7
328.15 K | – | 1157.9 | 79.1
333.15 K | 0.612 | 1154.7 | 63.7
338.15 K | – | 1151.4 | 52
343.15 K | 0.857 | 1148.2 | 43
348.15 K | – | 1145 | 36
353.15 K | 1.16 | 1141.8 | 30.5

CC[N+](C)(CC)CCOC.O=S(=O)([N-]S(=O)(=O)C(F)(F)F)C(F)(F)F
Conditions | electrical conductivity [S/m] | mass density [kg/m3] | viscosity [mPa·s]
234.15 K | 0.00083 | – | –
243.15 K | 0.0033 | – | –
253.15 K | 0.0113 | – | –
263.15 K | 0.0301 | – | –
273.15 K | 0.0662 | – | –
283.15 K | 0.127 | 1420.6 | 166
288.15 K | – | 1416.1 | 123
293.15 K | 0.216 | 1411.5 | 92.7
298.15 K | – | 1406.9 | 71.8
303.15 K | 0.336 | 1402.3 | 56.8
308.15 K | – | 1397.7 | 45.7
313.15 K | 0.488 | 1393.2 | 37.4
318.15 K | – | 1388.6 | 31
323.15 K | 0.67 | 1384 | 26.1
328.15 K | – | 1379.5 | 22.2
333.15 K | 0.869 | 1375 | 19.1
338.15 K | – | 1370.5 | 16.6
343.15 K | 1.09 | 1366.1 | 14.5
348.15 K | – | 1361.7 | 12.8
353.15 K | 1.33 | 1357.3 | 11.4

— the NIST ThermoML archive (doi:10.1021/je500065k)
